Assay results taken from PubChem BioAssay (NCI).
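Step 1: Grow cells in 96-well plates. Step 2: Expose to compound for 48 hours at 5 concentrations. Step 3: Interpolate endpoints linearly; if unreached, use highest concentration. Abbreviation: GI50, concentration required for 50% inhibition of growth. At the TGI there is no net growth.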

Assays:
Assay in all cases: DTP human tumour cell line panel, 48 h
OVCAR-3 ovarian = test system: OVCAR-3 ovarian
UACC-257 melanoma = test system: UACC-257 melanoma
RPMI-8226 leukemia = test system: RPMI-8226 leukemia
KM12 colon = test system: KM12 colon
SR leukemia = test system: SR leukemia
K-562 leukemia = test system: K-562 leukemia
SK-OV-3 ovarian = test system: SK-OV-3 ovarian

Compound | TGI (OVCAR-3 ovarian) [µM] | TGI (UACC-257 melanoma) [µM] | TGI (RPMI-8226 leukemia) [µM] | TGI (KM12 colon) [µM] | TGI (SR leukemia) [µM] | TGI (K-562 leukemia) [µM] | TGI (SK-OV-3 ovarian) [µM] | GI50 (OVCAR-3 ovarian) [µM] | GI50 (UACC-257 melanoma) [µM] | GI50 (RPMI-8226 leukemia) [µM] | GI50 (KM12 colon) [µM] | GI50 (SR leukemia) [µM] | GI50 (K-562 leukemia) [µM] | GI50 (SK-OV-3 ovarian) [µM]
COC(=O)C(C(=O)C(=O)Nc1ccc([N+](=O)[O-])cc1)c1nc2cc(C)c(C)cc2[nH]c1=O (stereo not drawn) | > 100 | > 100 | > 100 | > 100 | > 100 | > 100 | > 100 |  |  |  |  |  |  | 
C[CH2][Sn]([Cl])([CH2]C)[CH2]C | 6.61 | 4.43 | 9.17 | 12.8 | 5.01 | 5 | 5.8 | 1.34 | 1 | 0.399 | 1.08 | 0.481 | 0.718 | 1.47
O=c1nc(-c2ccccc2)scc1-c1ccccc1 | > 100 | > 100 | > 100 | > 100 | > 100 | > 100 | > 100 |  |  |  |  |  |  | 
C/C=C/C=C\C(=O)C1c2cccc(O)c2C(=O)c2c(O)cc(C)cc21 (stereo not drawn) | 2.2 | 3.46 | 7.26 | 1.51 |  | > 100 | 3.08 |  |  |  |  |  |  | 
O=c1[nH]c(=O)n(C2OC(CO)C(O)C2O)cc1OCc1ccccc1 (stereo not drawn) | > 100 | > 100 | > 73.3 | > 100 | > 67.5 | > 100 | > 100 |  |  |  |  |  |  | 
C[C@]12CC/C(=N\OC(=O)Nc3ccccc3)C=C1CC[C@@H]1C2CC[C@@]2(C)C1CC[C@@H]2OC(=O)Nc1ccccc1 (stereo partly drawn) | > 100 |  | > 100 | > 100 |  | > 100 | > 100 |  |  |  |  |  |  | 
CCC[CH2][Ge]([CH2]CCC)([CH2]CCC)[O]C(=O)C(OC(C)=O)c1ccccc1 (stereo not drawn) | 8.52 | 11.5 | 4.82 | 22.1 |  | > 34 | 55.5 | 0.731 | 0.246 | 0.297 | 2.98 |  | 0.202 | 12.4
CCOC1=C2C(C)(CCC3[C@@]4(C)C=CC(=O)C(C)(C)C4CC(O)[C@@]23C)C(c2ccoc2)C1=O (stereo partly drawn) | 33.4 | 99.3 | 49.8 | 46.6 |  | 50.2 | 76.8 |  |  |  |  |  |  | 
CCOC(=O)/C(=C/c1ccc(Cl)cc1)N(CC)CC |  | > 100 | > 100 | > 100 | > 100 | > 100 | > 100 |  |  |  |  |  |  | 
COc1cccc(N2C(=O)[C@H]3[C@H]4CC(C(C)(C)C)CC[C@H]4c4c([nH]c5ccccc45)[C@H]3C2=O)c1 (stereo partly drawn) | 36.2 | 48.6 | 35 | > 100 |  | 29 | 35.3 |  |  |  |  |  |  | 
N#CC(C(=O)C(=O)Nc1ccc(Cl)c(Cl)c1)c1ccc(Cl)cc1 (stereo not drawn) | > 100 | > 100 | > 100 | > 100 | > 100 | 60.1 | > 100 |  |  |  |  |  |  | 
COc1ccc2c([nH]c3cc(O)c(C)cc32)c1CC=C(C)C | 12.4 |  | > 25 |  | > 25 | 24 | > 25 |  |  |  |  | 7.19 | 5.78 | 
CN1CCc2cc(O)c3cc2C1Cc1ccc(cc1)Oc1cc(ccc1O)CC1c2c(cc4c(c2O3)OCO4)CCN1C (stereo not drawn) | > 100 |  |  | > 100 | > 100 | 39.4 |  |  |  |  |  |  |  | 
O=C(NCCCCCCNC(=O)NC1OCC(O)C(O)C1O)NC1OCC(O)C(O)C1O (stereo not drawn) | > 100 |  | > 100 | > 100 | > 100 | > 100 | > 100 |  |  |  |  |  |  | 
COc1cc2c3c(c1OCc1ccccc1)NCCC3NCC2 (stereo not drawn) | > 100 | > 100 | > 100 | > 100 | > 100 | > 100 |  |  |  |  |  |  |  | 
CCCCCCCCCCCCCC(=O)OC1C(CO)OC(=O)C1O (stereo not drawn) | > 100 | > 100 | > 100 | > 100 |  | > 100 | > 100 |  |  |  |  |  |  | 
O=C1C2C3CCC(C2C(=O)N1CO)C1C2C(=O)N(CO)C(=O)C2C31 (stereo not drawn) | > 100 | > 100 | 47.7 | > 100 | 36.7 | > 75.2 | > 100 |  |  |  |  |  |  | 
CO[C@]12CCC(=O)N1C=Cc1c2[nH]c2ccccc12 | > 100 | > 100 | > 100 |  | > 100 | > 100 |  |  |  |  |  |  |  | 
N#CC(C#N)=Cc1ccc(Oc2ccccc2)cc1 | > 100 | > 71.3 | 57.3 | > 100 | > 100 | > 80.4 | > 100 |  |  |  |  |  |  | 
CC(=O)OCc1c(C)c2ccccc2n1C(C)=O | 62.8 | 89.8 |  | > 100 | 76.1 | 71.5 | > 100 |  |  |  |  |  |  | 
CCOC(=O)NN(C(=O)OCC)C(C(=O)c1ccc(Cl)cc1)=C1NCCN1 | > 100 | > 100 |  | > 100 | > 100 | > 100 | > 100 |  |  |  |  |  |  | 
Cc1ccc(S(=O)(=O)NC(=O)C#CCOC2CCCCO2)cc1 (stereo not drawn) | > 100 | > 100 | > 100 |  | > 100 | > 100 |  |  |  |  |  |  |  | 
